Our source for the TGI values is PubChem BioAssay (NCI).

SMILES strings stand for the structures.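 Following 48 hours of exposure in 96-well plates, responses at five concentrations were used to interpolate endpoints linearly. TGI marks complete inhibition of growth.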

Some test systems named below: HOP-62 NSCLC; SK-MEL-2 melanoma; SK-MEL-5 melanoma; MALME-3M melanoma; SK-MEL-28 melanoma; HCC-2998 colon; UACC-257 melanoma; OVCAR-4 ovarian; SN12C renal; SW-620 colon; HCT-15 colon; MOLT-4 leukemia; NCI-H522 lung.
Holding throughout (experiment): inhibition of tumour cell growth, NCI panel, 48 h

Take `NNC(=O)c1c(-c2cccnc2)cnc2ccccc12`: the TGI in the test on HOP-62 NSCLC, in the test on SK-MEL-2 melanoma, with SK-MEL-5 melanoma, in the test with MALME-3M melanoma, with SK-MEL-28 melanoma and in the test on HCC-2998 colon was over 100 µM throughout. For the same molecule, the TGI in the test on UACC-257 melanoma, with OVCAR-4 ovarian, in the test on SN12C renal, in the test with SW-620 colon, in the test on HCT-15 colon and with MOLT-4 leukemia was over 100 µM each time. Besides, in the test with NCI-H522 lung, the TGI was over 100 µM.
As to `c1cc2nnc1SCCCSc1ccc(nn1)SCCCS2`, the TGI is over 93.1 µM in the test on HOP-62 NSCLC; over 86.8 µM with SK-MEL-2 melanoma; over 100 µM in the test with SK-MEL-5 melanoma; over 100 µM in the test with MALME-3M melanoma; over 100 µM with SK-MEL-28 melanoma; 99.5 µM with HCC-2998 colon. Besides, the TGI with UACC-257 melanoma was over 71.6 µM; in the test with OVCAR-4 ovarian, over 100 µM; with SN12C renal, over 95.6 µM; with SW-620 colon it was over 100 µM; in the test on HCT-15 colon, over 100 µM; with MOLT-4 leukemia, over 100 µM. In the test with NCI-H522 lung, the TGI is over 100 µM.
Regarding `COc1ccc(N2C(=O)/C(=C\c3cc(OC)c(OC)c(OC)c3)SC2c2ccccc2)cc1` (stereo not drawn), the TGI with HOP-62 NSCLC, in the test with SK-MEL-2 melanoma, with SK-MEL-5 melanoma, in the test with MALME-3M melanoma, in the test on SK-MEL-28 melanoma and in the test on HCC-2998 colon was over 100 µM in each case. Besides, the TGI in the test on UACC-257 melanoma, with OVCAR-4 ovarian, with SN12C renal, in the test on SW-620 colon, with HCT-15 colon and in the test with MOLT-4 leukemia was over 100 µM each time. Moreover, the TGI in the test with NCI-H522 lung is over 100 µM.
`NC(=O)C(=CNC(=S)Nc1ccccc1)C(N)=O`: the TGI with HOP-62 NSCLC, in the test on SK-MEL-2 melanoma, with SK-MEL-5 melanoma, in the test with MALME-3M melanoma, in the test with SK-MEL-28 melanoma and in the test with HCC-2998 colon was over 100 µM each time. Also, the TGI in the test on UACC-257 melanoma, in the test with OVCAR-4 ovarian, in the test with SN12C renal, in the test with SW-620 colon, in the test with HCT-15 colon and in the test with MOLT-4 leukemia was over 100 µM throughout. The same molecule registered a TGI in the test on NCI-H522 lung of over 100 µM.
For `CCOC(=O)C(C(=O)OCC)=C1NC2(c3ccccc3Nc3ccccc32)C(C#N)S1` (stereo not drawn), the TGI with HOP-62 NSCLC stood at 27 µM; in the test on SK-MEL-2 melanoma, 25.5 µM; with SK-MEL-5 melanoma, 21.6 µM; with MALME-3M melanoma, 29 µM; in the test with SK-MEL-28 melanoma it was 50.7 µM; with HCC-2998 colon it was 17.1 µM. In addition, the TGI in the test with UACC-257 melanoma was 36 µM; in the test with OVCAR-4 ovarian, 18.5 µM; in the test on SN12C renal, 18.9 µM; with SW-620 colon, 51.6 µM; with HCT-15 colon, 19.6 µM; in the test with MOLT-4 leukemia, 10.1 µM. The same molecule yielded a TGI with NCI-H522 lung of 29.2 µM.
`CCc1c(C)c(C#N)c(=S)n(C2OC(COC(C)=O)C(OC(C)=O)C(OC(C)=O)C2OC(C)=O)c1-c1ccccc1` (stereo not drawn): the TGI with HOP-62 NSCLC, in the test with SK-MEL-2 melanoma, with SK-MEL-5 melanoma, with MALME-3M melanoma, in the test with SK-MEL-28 melanoma and with HCC-2998 colon was over 31.6 µM in each case. Besides, the TGI in the test with UACC-257 melanoma is over 31.6 µM; with OVCAR-4 ovarian it was over 31.6 µM; with SN12C renal, over 31.6 µM; in the test on SW-620 colon, over 100 µM; in the test with HCT-15 colon, over 31.6 µM; with MOLT-4 leukemia it was over 31.6 µM. For the same molecule, the TGI with NCI-H522 lung is over 31.6 µM.
On to `CCC1OC2C(CC=C(C)C)=C3OC(C)(O)C(C)(CC)C(OC(C)=O)C3=C3OC(=O)C=C1C32` (stereo not drawn), for which the TGI in the test on HOP-62 NSCLC amounted to 60.1 µM; in the test on SK-MEL-2 melanoma, 41.8 µM; in the test on SK-MEL-5 melanoma it was 42.2 µM; in the test on MALME-3M melanoma it was 49.3 µM; with SK-MEL-28 melanoma, 59.1 µM; in the test on HCC-2998 colon it was 50.6 µM. For the same molecule, the TGI with UACC-257 melanoma is 53.7 µM; with OVCAR-4 ovarian, 70.5 µM; with SN12C renal, 41.2 µM; in the test with SW-620 colon, over 100 µM; with HCT-15 colon, over 100 µM; in the test on MOLT-4 leukemia, 77.5 µM. In the test on NCI-H522 lung, this molecule came in with a TGI of 38.1 µM.
As to `COc1cc2c(c(O)c1OC)C(=O)[C@@H]1CCC(=O)N1C2`, the TGI in the test on HOP-62 NSCLC, in the test with SK-MEL-2 melanoma, in the test with SK-MEL-5 melanoma, with MALME-3M melanoma, in the test on SK-MEL-28 melanoma and with HCC-2998 colon was over 100 µM throughout. In addition, the TGI in the test on UACC-257 melanoma, with OVCAR-4 ovarian, with SN12C renal, with SW-620 colon, in the test on HCT-15 colon and in the test with MOLT-4 leukemia was over 100 µM each time. Besides, the TGI in the test on NCI-H522 lung was over 100 µM.
Consider `Clc1cc(Cl)cc(N=C/C=C/Nc2cc(Cl)cc(Cl)c2)c1`, for which the TGI in the test with HOP-62 NSCLC was 51.8 µM; with SK-MEL-2 melanoma, 40.7 µM; in the test on SK-MEL-5 melanoma it was 34.2 µM; in the test with MALME-3M melanoma, over 100 µM; in the test with SK-MEL-28 melanoma it was 47 µM; in the test with HCC-2998 colon, 33.4 µM. Also, the TGI with UACC-257 melanoma was over 100 µM; in the test on OVCAR-4 ovarian it was 32.7 µM; with SN12C renal, 38.8 µM; in the test with SW-620 colon, 37.6 µM; in the test on HCT-15 colon, 30.6 µM; with MOLT-4 leukemia it was 49.6 µM. Moreover, in the test on NCI-H522 lung, the TGI came to 34.1 µM.
As for `CC(C)=CCN1CC(C)C(=O)Nc2ccccc21` (stereo not drawn), the TGI in the test with HOP-62 NSCLC, in the test on SK-MEL-2 melanoma, with SK-MEL-5 melanoma, in the test with MALME-3M melanoma, in the test with SK-MEL-28 melanoma and with HCC-2998 colon was over 100 µM in each case. Also, the TGI in the test with UACC-257 melanoma, with OVCAR-4 ovarian, with SN12C renal, in the test with SW-620 colon, with HCT-15 colon and in the test with MOLT-4 leukemia was over 100 µM each time. Further, the TGI with NCI-H522 lung was over 100 µM.
As for `N[C@H](C(=O)O)[C@@H]1CC(Br)=NO1`, the TGI in the test on HOP-62 NSCLC, with SK-MEL-2 melanoma, in the test on SK-MEL-5 melanoma, in the test on MALME-3M melanoma, in the test with SK-MEL-28 melanoma and with HCC-2998 colon was over 100 µM each time. Besides, the TGI in the test with UACC-257 melanoma, with OVCAR-4 ovarian, in the test on SN12C renal, with SW-620 colon, in the test on HCT-15 colon and in the test on MOLT-4 leukemia was over 100 µM in each case. The TGI in the test on NCI-H522 lung was over 100 µM.
